# Literature values in patent US20240173376A1, “TREM-1 INHIBITORS FOR THE TREATMENT OF MARFAN SYNDROME” (INSERM (INSTITUT NATIONAL DE LA SANTÉ ET DE LA RECHERCHE …, priority 2021, published 2024).
# What was measured:
# [1] = Marfan patients (Shores et al 1994; Ladouceur et al 2007)
# AT1R [2] = conditions: animal model of Marfan's disease (Hibashi et al, Science, 2006)
# AT1R [3] = biological target: T1, AT1R (Homo sapiens, UniProt P30556)
# T1 construct: host or cells: patients in randomized clinical studies
# T1 sequence (P30556 1-359): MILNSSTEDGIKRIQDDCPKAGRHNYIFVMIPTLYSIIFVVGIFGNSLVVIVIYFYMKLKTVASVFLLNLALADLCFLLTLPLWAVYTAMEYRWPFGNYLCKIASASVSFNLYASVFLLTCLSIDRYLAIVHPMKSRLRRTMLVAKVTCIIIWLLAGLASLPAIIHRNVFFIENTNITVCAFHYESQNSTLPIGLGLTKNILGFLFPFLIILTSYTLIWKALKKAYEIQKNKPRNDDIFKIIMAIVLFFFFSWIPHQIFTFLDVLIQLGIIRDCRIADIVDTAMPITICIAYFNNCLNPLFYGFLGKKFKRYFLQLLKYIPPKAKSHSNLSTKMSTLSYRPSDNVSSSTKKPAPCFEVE
SMILES,aortic dilatation and risk of dissection [1],arterial wall architecture and aortic dilatation (AT1R [2]),"benefit in humans (AT1R [3]; randomized, double-blind, multicenter study (Milleron et al, Eur Heart J))","progression of aortic dilatation in humans (AT1R [3]; study with comparable methodology, N=192 (Mullen et al. Lancet 2019))"
CC(C)NCC(O)COc1cccc2ccccc12 (stereo not shown) [propranolol],limits aortic dilatation and the risk of dissection,–,–,–
CCCCc1nc(Cl)c(CO)n1Cc1ccc(-c2ccccc2-c2nn[nH]n2)cc1 [Losartan],–,improves arterial wall architecture and reduces aortic dilatation,no benefit,a benefit
